Assay results published in US10159636B2, “Cosmetic composition containing acetylated oligoglucuronans” (Sederma, S.A.S., priority 2008, dated 2018).
Marks after values point to notes of the source that are not given here.

What was measured:
[1] = system: elastin synthesis by fibroblasts; assay: Assay of elastin synthesis by fibroblasts (sandwich ELISA of culture supernatants); type: cell-based, human
Experimental: Normal human fibroblasts are inseminated. After anchoring for 24 h, TGF-β1 and 9.1% acetylated oligoglucuronans are placed in contact with the cells for 72 h. The culture supematants are removed and the amount of elastin is quantified by sandwich ELISA.
TGF-β1 is used as the positive control for elastin synthesis.
(§1) Analysis of variance is performed on the data (treated cases compared to untreated cases). If variances are equal, a Student t test for paired series is then performed on the mean values.
Normal human fibroblasts are inseminated. After anchoring for 24 h, TGF-β1, oligoglucuronans I, oligoglucuronans II, oligoglucuronans IIII, glucuronic acid and galacturonic acid are placed in contact with the cells for 72 h. The culture supernatants are removed and the amount of elastin present is quantified by sandwich ELISA.
TGF-β1 is used as a positive control for elastin.

[2] = system: laminin synthesis by keratinocytes; assay: Assay of laminin synthesis by keratinocytes (sandwich ELISA); type: cell-based, human; details: for Conclusion (laminin by keratinocytes) / % Change/untreated cells (laminin by keratinocytes): Table 9; for % Change/untreated cells (laminin by keratinocytes): n = 5
Experimental: Human keratinocytes are inseminated into 24 well plates. After anchoring for 24 h, TGF-β1 and 9.1% acetylated oligoglucuronans are placed in contact with the cells for 72 h. The culture supernatants are removed and the amount of laminin is quantified by sandwich ELISA.
TGF-β1 is used as a positive control for laminin synthesis.
as §1
(§2) Human keratinocytes are inseminated into well plates. After anchoring for 24 h, TGF-β1, oligoglucuronans I, oligoglucuronans II, oligoglucuronans III, glucuronic acid and galacturonic acid are placed in contact with the cells for 72 h. The culture supernatants are removed and the amount of laminin is quantified by sandwich ELISA.

[3] = system: hyaluronic acid synthesis by keratinocytes; assay: Assay of hyaluronic acid synthesis by keratinocytes (sandwich ELISA); type: cell-based, human; details: for % Change/untreated cells (hyaluronic acid synthesis by keratinocytes): 72 h
Experimental: Human keratinocytes are inseminated. After anchoring for 24 h, retinoic acid and 9.1% acetylated oligoglucuronans are placed in contact with the cells for 72 h. The culture supernatants are removed and the amount of hyaluronic acid is quantified by sandwich ELISA.
Retinoic acid is used at the positive control for hyaluronic acid synthesis.
as §1
as §2, with “retinoic acid,” for “TGF-β1,”, “hyaluronic acid” for “laminin”
Retinoic acid is used as a positive control of hyaluronic acid.

[4] = target: serum albumin incubated with fructose (Homo sapiens, UniProt P02768); assay: Anti-glycation efficacy: inhibition of AGE (FFI compounds) production, fluorescence; type: biochemical; details: 0.03%; serum albumin 2% + 100 mM fructose, pH 7.4, 50° C., 1 week; N=2
Sequence of serum albumin incubated with fructose (P02768 25-609): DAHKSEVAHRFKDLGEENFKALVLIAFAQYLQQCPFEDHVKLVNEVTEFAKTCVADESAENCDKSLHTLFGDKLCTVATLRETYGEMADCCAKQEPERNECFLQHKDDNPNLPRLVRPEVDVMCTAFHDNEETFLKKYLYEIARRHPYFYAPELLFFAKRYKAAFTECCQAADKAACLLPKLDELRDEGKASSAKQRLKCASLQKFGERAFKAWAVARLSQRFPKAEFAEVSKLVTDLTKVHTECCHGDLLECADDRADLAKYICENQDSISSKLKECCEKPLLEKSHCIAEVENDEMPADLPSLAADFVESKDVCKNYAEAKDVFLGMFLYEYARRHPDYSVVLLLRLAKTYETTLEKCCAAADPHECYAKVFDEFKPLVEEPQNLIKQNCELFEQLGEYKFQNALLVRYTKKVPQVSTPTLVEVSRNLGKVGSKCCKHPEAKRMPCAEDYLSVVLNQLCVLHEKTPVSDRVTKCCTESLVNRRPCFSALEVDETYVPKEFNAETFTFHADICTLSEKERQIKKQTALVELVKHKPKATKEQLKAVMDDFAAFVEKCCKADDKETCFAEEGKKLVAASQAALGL
Experimental: Principle: Non-enzymatic glycation between a protein and a reducing sugar is a slow spontaneous reaction which can be accelerated by temperature. An in vitro study model consisting of serum albumin incubated with fructose for one week was used. Glycation is recorded from the formation of fluorescent compounds, generally pentosides or FFI (furoyl-furanyl-imidazoles).
Protocol: In our test, serum albumin (2%) and 100 mM fructose are incubated in a pH 7.4 phosphate buffer at 50° C. for 1 week. […] The glycation reference value (Control) for the glycation after 1 week is determined from the serum albumin and fructose incubation. The positive glycation inhibition Control is obtained by incubating in the presence of aminoguanidine 0.03% and the test incubations are performed in the presence of 9.1% acetylated oligoglucuronans at different concentrations.
Results: For each fluorescence value measured the percentage change is calculated compared to the Control. The results shown in the table below are the mean values from N=2 tests.

[5] = Table 7, Eq 0.04% oligoglucuronans I, 72 h, n = 5
[6] = Table 8, Eq 0.04% oligoglucuronans I, n = 5
[7] = Table 8, Eq 0.06% oligoglucuronans I, n = 5
[8] = Eq 0.04% oligoglucuronans 1, 72 h
[9] = Eq 0.06% oligoglucuronans 1, 72 h

| Compound | Conclusion (elastin synthesis by fibroblasts) ([1]; Table 7) | Conclusion (laminin by keratinocytes) [2] | % Change/untreated cells (elastin synthesis by fibroblasts) [1, 5] | Conclusion (hyaluronic acid synthesis by keratinocytes) ([3]; Table 8) | % Change/untreated cells (hyaluronic acid synthesis by keratinocytes) [3, 6] | % Change/untreated cells (hyaluronic acid synthesis by keratinocytes) [3, 7] | % Change/untreated cells (laminin by keratinocytes) [2, 8] | % Change/untreated cells (laminin by keratinocytes) [2, 9] | other results |
| --- | --- | --- | --- | --- | --- | --- | --- | --- | --- |
| TGF-β1: Positive control for elastin (fibroblast) and laminin (keratinocytes) | Positive | Positive |  |  |  |  |  |  | % Change/untreated cells (elastin synthesis by fibroblasts) ([1]; Table 1, 10 ng/mL, 72 h contact, N = 2): +122%*; % Change/untreated cells (elastin synthesis by fibroblasts) ([1]; Table 7, 10 ng/mL, 72 h, n = 5): +106%*; % Change/untreated cells (laminin synthesis by keratinocytes) ([2]; Table 3, 10 ng/mL, 72 h, N = 3): +291%*; % Change/untreated cells (laminin by keratinocytes) ([2]; 10 ng/mL, 72 h): +255%* |
| O=C[C@H](O)[C@@H](O)[C@@H](O)[C@H](O)C(=O)O [Galacturonic acid] | =0 | =0 | −1% | =0 | +7% | +12% | +1% | −4% |  |
| N=C(N)NN [Aminoguanidine, aminoguanidine] |  |  |  |  |  |  |  |  | Reduction in AGE % compared to Control [4]: 67 +/− 2% |
| CC1=C(/C=C/C(C)=C/C=C/C(C)=C/C(=O)O)C(C)(C)CCC1 [Retinoic acid] |  |  |  |  |  |  |  |  | % Change/untreated cells (hyaluronic acid synthesis by keratinocytes) ([3]; Table 2, 1 μM, N = 3): +144%*; % Change/untreated cells (hyaluronic acid synthesis by keratinocytes) ([3]; Table 8, 1 μM, n = 5): +136%* |
| O=C[C@H](O)[C@@H](O)[C@H](O)[C@H](O)C(=O)O [Glucuronic acid] | =0 | =0 | +32% | =0 | +10% | +2% | −7% | −12% |  |
